Assay results taken from ChEMBL document CHEMBL1287771, “Novel hybrids of 15-membered 8a- and 9a-azahomoerythromycin A ketolides and quinolones as potent antibacterials” (2010).
In brackets after ≈: the same amount, converted by molar mass.

Assays:
Format in all cases: functional
[1] = test system: Streptococcus pyogenes; assay: Antibacterial activity against inducible macrolide-lincosamide-streptogramin B-resistant Streptococcus pyogenes B0543 by agar microdilution method
[2] = test system: Staphylococcus aureus; assay: Antibacterial activity against inducible macrolide-lincosamide-streptogramin B-resistant Staphylococcus aureus B0538 by agar microdilution method
[3] = test system: Streptococcus pneumoniae; assay: Antibacterial activity against erythromycin A-susceptible Streptococcus pneumoniae B0541 by agar microdilution method
[4] = test system: Staphylococcus aureus; assay: Antibacterial activity against efflux-resistant Staphylococcus aureus B0331 by agar microdilution method
[5] = test system: Streptococcus pyogenes; assay: Antibacterial activity against erythromycin A-susceptible Streptococcus pyogenes B0542 by agar microdilution method
[6] = test system: Streptococcus pneumoniae; assay: Antibacterial activity against efflux-resistant Streptococcus pneumoniae B0326 by agar microdilution method
[7] = test system: Moraxella catarrhalis; assay: Antibacterial activity against Moraxella catarrhalis B0324 by agar microdilution method
[8] = test system: Staphylococcus aureus; assay: Antibacterial activity against erythromycin A-susceptible Staphylococcus aureus B0329 by agar microdilution method
[9] = test system: Streptococcus pneumoniae; assay: Antibacterial activity against constitutive macrolide-lincosamide-streptogramin B-resistant Streptococcus pneumoniae B0627 by agar microdilution method
[10] = test system: Staphylococcus aureus; assay: Antibacterial activity against constitutive macrolide-lincosamide-streptogramin B-resistant Staphylococcus aureus B0330 by agar microdilution method
[11] = test system: Streptococcus pyogenes; assay: Antibacterial activity against efflux-resistant Streptococcus pyogenes B0545 by agar microdilution method
[12] = test system: Streptococcus pyogenes; assay: Antibacterial activity against constitutive macrolide-lincosamide-streptogramin B-resistant Streptococcus pyogenes B0544 by agar microdilution method
[13] = test system: Haemophilus influenzae; assay: Antibacterial activity against Haemophilus influenzae B0529 by agar microdilution method

CC[C@H]1OC(=O)[C@H](C)[C@@H](O[C@@H]2C[C@@](C)(OC)[C@@H](O)[C@H](C)O2)[C@H](C)[C@@H](O[C@@H]2O[C@H](C)C[C@H](N(C)C)[C@H]2O)[C@](C)(OC/C=C/N[C@H](C)Cc2ccc([N+](=O)[O-])cc2)C[C@@H](C)NC(=O)[C@H](C)[C@H](O)[C@@]1(C)O
MIC [1]: 8 µg/mL (≈ 8.27 µM)
MIC [2]: > 64 µg/mL
MIC [3]: ≤ 0.125 µg/mL
MIC [4]: 64 µg/mL (≈ 66.2 µM)
MIC [5]: ≤ 0.125 µg/mL
MIC [6]: 64 µg/mL (≈ 66.2 µM)
MIC [7]: 2 µg/mL (≈ 2.07 µM)
MIC [8]: 0.5 µg/mL (≈ 0.517 µM)
MIC [9]: > 64 µg/mL
MIC [10]: > 64 µg/mL
MIC [11]: 32 µg/mL (≈ 33.1 µM)
MIC [12]: > 64 µg/mL
MIC [13]: 16 µg/mL (≈ 16.5 µM)

CC[C@H]1OC(=O)[C@H](C)C(=O)[C@H](C)[C@@H](O[C@@H]2O[C@H](C)C[C@H](N(C)C)[C@H]2O)[C@](C)(OCC(O)CNC2CN(S(=O)(=O)c3ccc4ccncc4c3)CCN2)C[C@@H](C)NC(=O)[C@H](C)[C@H](O)[C@@]1(C)O (stereo partly drawn)
MIC [1]: 16 µg/mL (≈ 17.1 µM)
MIC [2]: 16 µg/mL (≈ 17.1 µM)
MIC [3]: ≤ 0.125 µg/mL
MIC [4]: 16 µg/mL (≈ 17.1 µM)
MIC [5]: ≤ 0.125 µg/mL
MIC [6]: 64 µg/mL (≈ 68.3 µM)
MIC [7]: 8 µg/mL (≈ 8.54 µM)
MIC [8]: 8 µg/mL (≈ 8.54 µM)
MIC [9]: 32 µg/mL (≈ 34.1 µM)
MIC [10]: > 64 µg/mL
MIC [11]: 16 µg/mL (≈ 17.1 µM)
MIC [12]: > 64 µg/mL
MIC [13]: > 64 µg/mL

CC[C@H]1OC(=O)[C@H](C)C(=O)[C@H](C)[C@@H](O[C@@H]2O[C@H](C)C[C@H](N(C)C)[C@H]2O)[C@](C)(OCC(O)CNCCc2cccnc2)C[C@@H](C)NC(=O)[C@H](C)[C@H](O)[C@@]1(C)O (stereo partly drawn)
MIC [1]: 4 µg/mL (≈ 5.22 µM)
MIC [2]: 8 µg/mL (≈ 10.4 µM)
MIC [3]: 0.5 µg/mL (≈ 0.652 µM)
MIC [4]: 4 µg/mL (≈ 5.22 µM)
MIC [5]: 0.25 µg/mL (≈ 0.326 µM)
MIC [6]: 8 µg/mL (≈ 10.4 µM)
MIC [7]: 1 µg/mL (≈ 1.3 µM)
MIC [8]: 4 µg/mL (≈ 5.22 µM)
MIC [9]: 2 µg/mL (≈ 2.61 µM)
MIC [10]: > 64 µg/mL
MIC [11]: 2 µg/mL (≈ 2.61 µM)
MIC [12]: 32 µg/mL (≈ 41.7 µM)
MIC [13]: 8 µg/mL (≈ 10.4 µM)

CC[C@H]1OC(=O)[C@H](C)C(=O)[C@H](C)[C@@H](O[C@@H]2O[C@H](C)C[C@H](N(C)C)[C@H]2O)[C@](C)(OC/C=C/c2cnc3ccccc3c2)C[C@@H](C)C(=O)N[C@H](C)[C@H](O)[C@@]1(C)OC/C=C/c1cnc2ccccc2c1
MIC [1]: 0.5 µg/mL (≈ 0.542 µM)
MIC [2]: 0.25 µg/mL (≈ 0.271 µM)
MIC [3]: ≤ 0.125 µg/mL
MIC [4]: 0.5 µg/mL (≈ 0.542 µM)
MIC [5]: ≤ 0.125 µg/mL
MIC [6]: 0.5 µg/mL (≈ 0.542 µM)
MIC [7]: 0.125 µg/mL (≈ 0.135 µM)
MIC [8]: ≤ 0.125 µg/mL
MIC [9]: 4 µg/mL (≈ 4.33 µM)
MIC [10]: > 64 µg/mL
MIC [11]: 0.5 µg/mL (≈ 0.542 µM)
MIC [12]: 8 µg/mL (≈ 8.67 µM)
MIC [13]: 4 µg/mL (≈ 4.33 µM)

CC[C@H]1OC(=O)[C@H](C)[C@@H](O[C@@H]2C[C@@](C)(OC)[C@@H](O)[C@H](C)O2)[C@H](C)[C@@H](O[C@@H]2O[C@H](C)C[C@H](N(C)C)[C@H]2O)[C@](C)(OC/C=C/NCCc2ccc([N+](=O)[O-])cc2)C[C@@H](C)NC(=O)[C@H](C)[C@H](O)[C@@]1(C)O
MIC [1]: 2 µg/mL (≈ 2.1 µM)
MIC [2]: 64 µg/mL (≈ 67.1 µM)
MIC [3]: 0.06 µg/mL (≈ 0.0629 µM)
MIC [4]: 32 µg/mL (≈ 33.6 µM)
MIC [5]: ≤ 0.06 µg/mL
MIC [6]: 4 µg/mL (≈ 4.2 µM)
MIC [7]: 0.25 µg/mL (≈ 0.262 µM)
MIC [8]: 0.5 µg/mL (≈ 0.525 µM)
MIC [9]: 32 µg/mL (≈ 33.6 µM)
MIC [10]: > 64 µg/mL
MIC [11]: 16 µg/mL (≈ 16.8 µM)
MIC [12]: > 64 µg/mL
MIC [13]: 4 µg/mL (≈ 4.2 µM)

C=CCO[C@]1(C)C[C@@H](C)NC(=O)[C@H](C)[C@H](O)[C@@](C)(O)[C@@H](CC)OC(=O)[C@H](C)[C@@H](O[C@@H]2C[C@@](C)(OC)[C@@H](O)[C@H](C)O2)[C@H](C)[C@H]1O[C@@H]1O[C@H](C)C[C@H](N(C)C)[C@H]1O
MIC [1]: 16 µg/mL (≈ 20.3 µM)
MIC [2]: > 64 µg/mL
MIC [3]: ≤ 0.125 µg/mL
MIC [4]: 64 µg/mL (≈ 81.1 µM)
MIC [5]: ≤ 0.125 µg/mL
MIC [6]: 8 µg/mL (≈ 10.1 µM)
MIC [7]: ≤ 0.125 µg/mL
MIC [8]: 0.25 µg/mL (≈ 0.317 µM)
MIC [9]: > 64 µg/mL
MIC [10]: > 64 µg/mL
MIC [11]: 16 µg/mL (≈ 20.3 µM)
MIC [12]: > 64 µg/mL
MIC [13]: 1 µg/mL (≈ 1.27 µM)
